Test system: K562 cells
Experiment: Fluorescent in-cell reporter (FLICR) protein stability assay: turnover of C-terminally amidated sfGFP after nucleofection, followed by flow cytometry
Type: cell-based, human
Conditions: for destabilization of sfGFP carrying a primary amide on its C-terminus (sfGFP-Pep1-Ser-NH2): Fig. 1C, inhibitor concentration not given; for Amidated sfGFP degradation: Fig. 2G
Procedure: HEK293T cells were cultured in DMEM containing Glutamax (Thermo Fisher Scientific) and K562 cells were cultured in RPMI 1640 containing Glutamax (Thermo Fisher Scientific) under standard conditions. Growth media were further supplemented with 10% (v/v) Fetal Bovine Serum (Thermo Fisher Scientific) and 100 U/ml Penicillin-Streptomycin (Thermo Fisher Scientific). Stably transduced cells were selected using 2 µg/ml Puromycin (Thermo Fisher Scientific), 500 µg/ml Gene-ticin (Thermo Fisher Scientific) or 10 µg/ml Blasticidin (Thermo Fisher Scientific) starting two days after transduction. Induction of doxycycline-dependent vectors was performed using 500 ng/ml doxycycline (Merck) every 48 hours. Cells were treated with epoxomicin (Merck), concanamycin A (Merck) or TAK243 (MedChem Express) as indicated.
For measuring stability of recombinant or semi-synthetic proteins, 1.5- 2.0 x 10^5 cells were nucleofected with 200 pmol of protein in 20 µl cuvettes using a 4D nucleofector device (Lonza) according to the manufacturer's recommendations. Following protein delivery, cells were left to recover at 37°C for 30-45 minutes before measuring initial mean fluorescence intensity values (t0) on a Attune NxT Flow Cytometer (Thermo Fisher Scientific). Subsequent measurements were performed at indicated time points. Baseline-fluorescence values of mock nucleofected cells receiving no protein were measured and subtracted for each time point and baseline-corrected fluorescence values were normalized to t0.
The effect of each modification on protein degradation was measured in the human erythroleukemia cell line K562, which allows for efficient and uniform protein delivery via nucleofection.
Lastly, conjugates of mTagBFP2 and mCherry carrying a primary C-terminal amide were also efficiently degraded when delivered to human embryonic kidney-derived HEK293T cells (Fig.1D and Fig 1E) establishing that C-terminal amidation induces protein degradation in different amino acid-, protein- and cell contexts.
The effect of each modification on protein degradation in the human erythroleukemia cell line K562 was measured. A fluorescent in-cell reporter assay was performed, in which individual semi-synthetic proteins were introduced by electroporation into human cells and their clearance over time was followed by flow cytometry.
This implies that C-terminal amide-bearing proteins (CTAPs) are actively cleared from cells by the ubiquitin proteasome system. CTAP forms of both mCherry and mTagBFP2, but not their unmodified counterparts, were also efficiently degraded when delivered to human embryonic kidney-derived HEK293T cells, as shown in Fig. 2H (see also the explanations above relating to Fig. 1E). The presence of a C-terminal amide is therefore sufficient to induce protein degradation in different peptide-, protein- and cell contexts.

Row | SMILES | destabilization of sfGFP carrying a primary amide on its C-terminus (sfGFP-Pep1-Ser-NH2) | Amidated sfGFP degradation (Folimycin (100 nM) upon sfGFP delivery) | Amidated sfGFP degradation (epoxomicin (500 nM) upon sfGFP delivery) | Amidated sfGFP degradation (TAK243 (1 µM) upon sfGFP delivery)
1 | C/C=C/[C@H]1O[C@@](O)([C@@H](C)[C@H](O)[C@H](C)[C@H]2OC(=O)/C(OC)=C/C(C)=C/[C@@H](C)[C@@H](O)[C@@H](CC)[C@@H](O)[C@H](C)C/C(C)=C/C=C/[C@@H]2OC)C[C@@H](O[C@H]2C[C@@H](O)[C@H](OC(N)=O)[C@@H](C)O2)[C@@H]1C [concanamycin A] | not by inhibition of lysosomal acidification | not by inhibition of lysosomal acidification | – | –
2 | CC[C@H](C)[C@H](NC(=O)[C@H]([C@@H](C)CC)N(C)C(C)=O)C(=O)N[C@H](C(=O)N[C@@H](CC(C)C)C(=O)[C@@]1(C)CO1)[C@@H](C)O [epoxomicin] | fully blunted | – | prevented | –
3 | NS(=O)(=O)OC[C@H]1C[C@@H](Nc2ccnc3cc(-c4cccc(SC(F)(F)F)c4)nn23)[C@H](O)[C@@H]1O [TAK243] | fully blunted | – | – | prevented

From EP4627105B1, “METHOD FOR IDENTIFYING A MODIFIED AMINO ACID DEGRON (MAAD)” (ETH Zurich, priority 2022, dated 2024)
